# Source: patent US4259328A, “Morpholino pyridazinylhydrazones” (Richter Gedeon Vegyeszeti Gyar Rt, priority 1977, dated 1981)
# Where two headings read alike, the source gives them in different places.
# Experiments:
# dopamine-β-hydroxylase = molecular target: T1, dopamine-β-hydroxylase (Bos taurus, UniProt P15101); test: Dopamine-β-hydroxylase inhibiting activity (DBH) on bovine adrenal (gland) preparations; assay type: biochemical; conditions: read-out: Enzyme inhibiting activity, DBH; for inhibition at 100 µM: 10^-4 mole/liter; for inhibition at 10 µM: 10^-5 mole/liter
# T1 construct: from tissue; host or cells: bovine adrenal (gland) preparations
# T1 sequence (P15101 1-610): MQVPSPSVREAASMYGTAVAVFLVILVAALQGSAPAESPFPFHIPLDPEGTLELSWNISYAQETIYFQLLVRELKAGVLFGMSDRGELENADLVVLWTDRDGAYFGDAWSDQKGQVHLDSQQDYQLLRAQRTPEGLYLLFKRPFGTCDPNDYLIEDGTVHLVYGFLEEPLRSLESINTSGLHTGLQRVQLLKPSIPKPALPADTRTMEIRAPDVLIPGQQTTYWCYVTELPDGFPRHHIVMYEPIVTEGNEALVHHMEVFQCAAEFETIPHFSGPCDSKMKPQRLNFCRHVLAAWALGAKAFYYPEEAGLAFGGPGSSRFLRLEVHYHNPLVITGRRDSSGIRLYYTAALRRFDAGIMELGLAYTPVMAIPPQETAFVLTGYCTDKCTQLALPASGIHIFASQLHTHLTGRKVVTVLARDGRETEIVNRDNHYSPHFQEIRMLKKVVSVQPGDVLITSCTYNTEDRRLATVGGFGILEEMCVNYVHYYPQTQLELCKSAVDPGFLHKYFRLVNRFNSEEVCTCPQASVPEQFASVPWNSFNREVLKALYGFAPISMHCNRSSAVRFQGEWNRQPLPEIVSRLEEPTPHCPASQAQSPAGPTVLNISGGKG
# Description: Dopamine-β-hydroxylase inhibiting activity (DBH inhibiting activity) of the compounds according to the invention was tested on bovine adrenal (gland) preparations by a modified version of Nagatsu's method [B.B. Acta, 139 319 (1967)].
# (§1) Inhibiting effect of several compounds encompassed by the formula I in comparison with some known compounds is listed in the following Table I.
# tyrosine-hydroxylase = molecular target: T2, tyrosine-hydroxylase (Rattus norvegicus, UniProt P04177); test: In vitro tyrosine-hydroxylase inhibiting activity (TH) on rat adrenal homogenate; assay type: biochemical; conditions: read-out: Enzyme inhibiting activity, TH; for inhibition at 100 µM: 10^-4 mole/liter; for inhibition at 10 µM: 10^-5 mole/liter
# T2 construct: on rat adrenal homogenate; from tissue; host or cells: rat adrenal homogenate
# Description: In vitro tyrosine-hydroxylase inhibiting activity (TH inhibiting activity) of the new compounds according to the invention was tested by the method of Nagatsu [Anal. Biochem., 9, 122 (1964)] on rat adrenal homogenate. Radioactive tyrosine was purified by the method elaborated by Ikeda [J. Biol. Chem., 241, 4452 (1966)]. TH activity of the rat adrenal homogenate amounted to […] nmoles/mg protein/60 min.
# as §1
# [1] = Acute toxicity (LD50) on mice; conditions: mouse, in vivo, po
# [2] = tested on: spontaneous hypertensive rats (Wistar-Okamoto rats); test: Blood pressure lowering activity, systolic blood pressure of waking spontaneous hypertensive rats, oral; assay type: in vivo, rat; conditions: for change in vivo at 50 mg/kg / change in vivo at 2.5 mg/kg / change in vivo at 20 mg/kg: Rattus norvegicus, oral, read-out: Reduction in blood pressure; for significant blood pressure lowering activity: ≥-15%
# Description: Blood pressure lowering activity of the new compounds according to the invention was tested on spontaneous hypertensive rats (Wistar-Okamoto rats) following the method described in Arzn. Forsch., 6, 222 (1956). Systolic blood pressure of waking animals was measured in arteria caudalis 4, 24, 48 and 72 hours after the oral administration of the test compounds.
# T2 sequence (P04177 whole entry): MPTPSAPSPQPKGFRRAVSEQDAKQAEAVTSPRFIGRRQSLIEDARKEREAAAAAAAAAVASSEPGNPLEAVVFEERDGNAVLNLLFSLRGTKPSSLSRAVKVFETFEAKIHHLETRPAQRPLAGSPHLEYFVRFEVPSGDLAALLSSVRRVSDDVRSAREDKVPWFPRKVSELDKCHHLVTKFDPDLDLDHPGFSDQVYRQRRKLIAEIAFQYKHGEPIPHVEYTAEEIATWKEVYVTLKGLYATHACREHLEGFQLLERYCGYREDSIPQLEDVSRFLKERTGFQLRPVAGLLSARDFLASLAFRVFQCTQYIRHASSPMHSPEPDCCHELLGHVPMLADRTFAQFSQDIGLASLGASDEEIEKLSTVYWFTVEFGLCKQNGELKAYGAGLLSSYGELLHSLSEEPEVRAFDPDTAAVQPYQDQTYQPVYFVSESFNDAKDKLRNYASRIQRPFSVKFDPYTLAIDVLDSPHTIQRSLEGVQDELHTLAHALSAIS
inhibition at 100 µM (dopamine-β-hydroxylase),inhibition at 10 µM (dopamine-β-hydroxylase),SMILES,LD50 [1],significant blood pressure lowering activity [2],also measured
90%,10%,"CC(=NNc1cccnn1)c1ccccc1 [Example 13, 1-Phenyl-1-ethylidene-3-pyridazinylhydrazone]",,,inhibition at 100 µM (tyrosine-hydroxylase): 95%; inhibition at 10 µM (tyrosine-hydroxylase): 40%
,,CCOC(=O)CCCC(C)=NNc1ccc(Cl)nn1 [Example 26],200 mg/kg,≥ -15%,change in vivo at 50 mg/kg ([2]; 4 hours): -38%; change in vivo at 50 mg/kg ([2]; 24 hours): -29%
88%,32%,"O=C(O)C1CCCCC1=NNc1ccc(Cl)nn1 (centres unmarked) [Example 18, 2-Carboxy-1-cyclohexylidene-3-chloro-6-pyridazinylhydrazone]",,,inhibition at 100 µM (tyrosine-hydroxylase): 100%; inhibition at 10 µM (tyrosine-hydroxylase): 50%
,,"c1cc(N2CCOCC2)nnc1NN=C1CCCCC1 [Example 10, Cyclohexylidene-3-morpholino-6-pyridazinylhydrazone]",< 200 mg/kg,≥ -15%,change in vivo at 2.5 mg/kg ([2]; 4 hours): -41%; change in vivo at 2.5 mg/kg ([2]; 24 hours): -26%
100%,40%,"CCOC(=O)CC(=NNc1ccc(Cl)nn1)c1ccccc1 [Example 34, 1-(Ethoxycarbonyl)-2-phenyl-2-ethylidene-3-chloro-6-pyridazinylhydrazone]",,,
,,"CC(CCC(=O)O)=NNc1ccc(Cl)nn1 [Example 38, 4-Carboxy-2-butylidene-3-chloro-6-pyridazinylhydrazone]",200 mg/kg,≥ -15%,change in vivo at 50 mg/kg ([2]; 4 hours): -34%; change in vivo at 50 mg/kg ([2]; 24 hours): -27%
,,"CCOC(=O)C(C)C(C)=NNc1ccc(Cl)nn1 (centres unmarked) [Example 25, 3-(Ethoxycarbonyl)-2-butylidene-3-chloro-6-pyridazinylhydrazone]",200 mg/kg,≥ -15%,change in vivo at 50 mg/kg ([2]; 4 hours): -33%; change in vivo at 50 mg/kg ([2]; 24 hours): -17%
,,"CC(CC(=O)OC(C)(C)C)=NNc1ccc(C(N)=O)nn1 [Example 56, 3-(tert.-Butoxycarbonyl)-2-propylidene-(3-carbamoyl-6-pyridazinyl) hydrazine]",> 200 mg/kg,≥ -15%,change in vivo at 20 mg/kg ([2]; 4 hours): -20%; change in vivo at 20 mg/kg ([2]; 24 hours): 0%
88%,32%,"CC1CCCCC1=NNc1ccc(Cl)nn1 (centres unmarked) [Example 15, 2-Methyl-1-cyclohexylidene-3-chloro-6-pyridazinylhydrazone]",,,inhibition at 100 µM (tyrosine-hydroxylase): 100%; inhibition at 10 µM (tyrosine-hydroxylase): 50%
,,"CC(CCC(=O)OC(C)(C)C)=NNc1ccc(Cl)nn1 [Example 43, 4-(tert.-Butoxycarbonyl)-2-butylidene-3-chloro-6-pyridazinylhydrazone]",200 mg/kg,≥ -15%,change in vivo at 50 mg/kg ([2]; 4 hours): -32%; change in vivo at 50 mg/kg ([2]; 24 hours): -18%
,,"CC(CC(=O)OC(C)(C)C)=NNc1ccc(C)nn1 [Example 53, 3-(tert.-Butoxycarbonyl)-2-propylidene-(3-methyl-6-pyridazinyl) hydrazone]",200 mg/kg,≥ -15%,change in vivo at 50 mg/kg ([2]; 4 hours): -32%; change in vivo at 50 mg/kg ([2]; 24 hours): -27%
100%,56%,"CCOC(=O)CC(C)=NNc1cccnn1 [Example 22, 3-(Ethoxycarbonyl)-2-propylidene-(3-pyridazinyl)hydrazone]",,,inhibition at 100 µM (tyrosine-hydroxylase): 100%; inhibition at 10 µM (tyrosine-hydroxylase): 50%
0%,0%,"CC(N)(Cc1ccc(O)cc1)C(=O)O (racemic) [D,L-α-methyl-4-hydroxy-phenyl-alanine, reference compound]",,,inhibition at 100 µM (tyrosine-hydroxylase): 100%; inhibition at 10 µM (tyrosine-hydroxylase): 60%
,,"CC(CCCC(=O)O)=NNc1ccc(N2CCOCC2)nn1 [Example 57, 5-Carboxy-2-pentylidene-3-morpholino-6-pyridazinylhydrazone]",200 mg/kg,≥ -15%,change in vivo at 2.5 mg/kg ([2]; 4 hours): -28%; change in vivo at 2.5 mg/kg ([2]; 24 hours): -16%
84%,10%,"c1cnnc(NN=C2CCCCC2)c1 [Example 12, Cyclohexylidene-3-pyridazinylhydrazone]",,,inhibition at 100 µM (tyrosine-hydroxylase): 100%; inhibition at 10 µM (tyrosine-hydroxylase): 85%
100%,41%,"CCOC(=O)CC(=NNc1ccc(Cl)nn1)c1cccnc1 [Example 37, 1-(Ethoxycarbonyl)-2-(3-pyridyl)-2-ethylidene-3-chloro-6-pyridazinylhydrazone]",,,
,,"CC(CCC(=O)O)=NNc1ccc(N2CCOCC2)nn1 [Example 48, 4-Carboxy-2-butylidene-3-morpholino-6-pyridazinylhydrazone]",200 mg/kg,≥ -15%,change in vivo at 2.5 mg/kg ([2]; 4 hours): -33%; change in vivo at 2.5 mg/kg ([2]; 24 hours): -8%
100%,50%,"COC(=O)CC(C)=NNc1ccc(Cl)nn1 [Example 24, 3-(Methoxycarbonyl)-2-propylidene-3-chloro-6-pyridazinylhydrazone]",,,
80%,0%,"CC12CCC(CC1=NNc1cccnn1)C2(C)C (centres unmarked) [Example 3, 1,7,7-Trimethy-2-bicyclo-[2,2,1]heptylidene-3-pyridazinylhydrazone]",,,inhibition at 100 µM (tyrosine-hydroxylase): 100%; inhibition at 10 µM (tyrosine-hydroxylase): 75%
,,"CCOC(=O)CC(CC)=NNc1ccc(Cl)nn1 [Example 27, 1-(Ethoxycarbonyl)-2-butylidene-3-chloro-6-pyridazinylhydrazone]",,≥ -15%,

SMILES,inhibition at 100 µM (dopamine-β-hydroxylase),inhibition at 10 µM (dopamine-β-hydroxylase),LD50 [1],significant blood pressure lowering activity [2],also measured
"CCCCc1ccc(C(=O)O)nc1 [Fusaric acid, reference compound]",100%,100%,,,inhibition at 100 µM (tyrosine-hydroxylase): 0%; inhibition at 10 µM (tyrosine-hydroxylase): 0%
"CC(CCCC(=O)O)=NNc1ccc(Cl)nn1 [Example 50, 5-Carboxy-2-pentylidene-3-chloro-6-pyridazinylhydrazone]",73%,0%,200 mg/kg,≥ -15%,change in vivo at 20 mg/kg ([2]; 4 hours): -28%; change in vivo at 20 mg/kg ([2]; 24 hours): -30%
"CCOC(=O)CC=NNc1ccc(Cl)nn1 [Example 65, 2-(Ethoxycarbonyl)-1-ethylidene-(3-chloro-6-pyridazinyl)hydrazone]",73%,44%,> 200 mg/kg,≥ -15%,change in vivo at 50 mg/kg ([2]; 4 hours): -18%; change in vivo at 50 mg/kg ([2]; 24 hours): -23%
"CC(CCC(=O)O)=NNc1ccc(C)nn1 [Example 55, 4-Carboxy-2-butylidene-(3-methyl-6-pyridazinyl) hydrazone]",50%,0%,> 200 mg/kg,≥ -15%,change in vivo at 20 mg/kg ([2]; 4 hours): -39%; change in vivo at 20 mg/kg ([2]; 24 hours): -14%
COC(=O)CCC(C)=NNc1ccc(Cl)nn1 [Example 23],70%,50%,200 mg/kg,≥ -15%,change in vivo at 50 mg/kg ([2]; 4 hours): -21%; change in vivo at 50 mg/kg ([2]; 24 hours): -8%
"CCOC(=O)CCC(C)=NNc1ccc(Cl)nn1 [Example 62, 4-(Ethoxycarbonyl)-2-butylidene-(3-chloro-6-pyridazinl)hydrazone]",60%,,200 mg/kg,≥ -15%,change in vivo at 50 mg/kg ([2]; 4 hours): -29%; change in vivo at 50 mg/kg ([2]; 24 hours): -26%
"CCOC(=O)CCCCC(C)=NNc1ccc(Cl)nn1 [Example 49, 6-(Ethoxycarbonyl)-2-hexylidene-3-chloro-6-pyridazinylhydrazone]",66%,50%,< 200 mg/kg,≥ -15%,change in vivo at 20 mg/kg ([2]; 4 hours): -22%; change in vivo at 20 mg/kg ([2]; 24 hours): -13%
